According to EP3235813A1, “AZA-TETRA-CYCLO DERIVATIVES” (CIDQO 2012, S.L., priority 2016, dated 2017):

How the values were obtained:
[1] = biological target: T1, 11β-HSD1 (Homo sapiens, UniProt P28845); assay: Determination of 11β-HSD1 inhibition in HEK293 cells stably transfected with the 11β-HSD1 gene (cortisone to cortisol, LC/MS); type: cell-based; set-up: expressed in transfected cells; host or cells: HEK293 cells, stably transfected; conditions: 10 µM compound, 300 nM cortisone, 2 hours, read-out: HSD1 % inh in cells (10 µM)
T1 sequence (P28845 whole entry): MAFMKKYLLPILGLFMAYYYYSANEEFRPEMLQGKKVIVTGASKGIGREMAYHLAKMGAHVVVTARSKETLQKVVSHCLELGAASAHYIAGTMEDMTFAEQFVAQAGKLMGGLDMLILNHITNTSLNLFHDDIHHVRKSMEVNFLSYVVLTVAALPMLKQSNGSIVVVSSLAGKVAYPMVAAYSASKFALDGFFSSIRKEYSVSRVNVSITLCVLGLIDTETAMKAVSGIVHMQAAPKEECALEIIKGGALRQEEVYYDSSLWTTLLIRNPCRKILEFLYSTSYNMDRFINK
Procedure: 11β-HSD1 activity was determined in cells that are incubated with substrate (cortisone) and product (cortisol) is determined by LC/MS. Cells are plated at 2 x 10^4 cells/well in a 96-well tissue culture microplate and incubated overnight at […] in 5% CO2 95% O2. Compounds to be tested are solubilized in 100% DMSO at 10 mM and serially diluted in water and 10% DMSO to final concentration 100 µM in 10% DMSO. 10 µl of each test dilution is dispensed into the well of a 96-well microplate (assay concentration of 10 µM). Low and high control wells contain 10 µl of 10% DMSO. A solution of DMEM is prepared containing 1% penicillin, 1% streptomycin and 300 nM cortisone. Medium is removed from cell assay plate and DMEM solution (100 µl) added to each well. Cells are incubated for 2 hours […] in 5% CO2 95% O2. Following incubation medium is removed from each well into 500 µl ethyl acetate mixed by vortex and incubated at room temperature for 5 minutes. A calibration curve of known concentrations of cortisol in assay medium is also set up and added to 500 µl ethyl acetate vortexed and incubated as above. The supernatant is removed to a 96 deep well plate and dried down under liquid nitrogen at 65°C. Each well is solubilised in 100 µl 70:30 H2O:ACN and removed to a 96 well v bottomed plate for LC/MS analysis.

[2] = biological target: T1, 11β-HSD1; assay: Determination of the 11β-HSD1 inhibition in Human Liver Microsomes (3H-cortisone to 3H-cortisol conversion, scintillation proximity assay); type: biochemical; set-up: tissue Celsis In-vitro Technologies; host or cells: mixed sex human liver microsomes; conditions: mixed sex, 1 mM NADPH, 37°C, 30 minutes, read-out: HSD1 IC50 in HLM
Procedure: 11β-HSD1 activity was determined in mixed sex, Human Liver Microsomes (Celsis In-vitro Technologies) by measuring the conversion of ^3H-cortisone to ^3H-cortisol. Percentage inhibition was determined relative to a no inhibitor control. 5 µg of Human Liver microsomes was pre-incubated at 37°C for 10 minutes with inhibitor (assay concentrations of 1, 0.5, 0.1, 0.05, 0.01, 0.005, 0.001 and 0.0005 µM) and 1 mM NADPH in a final volume of 90 µL Krebs buffer. 10 µL of 200 nM ^3H-cortisone was then added followed by incubation for at 37°C for a further 30 minutes. The assay was terminated by rapid freezing on dry ice. ^3H-cortisone to ^3H-cortisol conversion was determined in 50 µL of the defrosted reaction by capturing liberated ^3H-cortisol on 100 µL 1:8000 dilution anti-cortisol (HyTest Ltd)-coated scintillation proximity assay beads (protein A-coated YSi, GE Healthcare). The percentages of inhibition at every tested concentration were analyzed using a non-linear regression curve fitting (variable slope) by using the software GraphPad Prism 5.0.

[3] = biological target: T2, 11β-HSD2 (Homo sapiens, UniProt P80365); assay: Determination of 11β-HSD2 inhibition in HEK293 cells stably transfected with the 11β-HSD2 gene (cortisol to cortisone, LC/MS); type: cell-based; conditions: assay concentrations of 10, 1, 0.1 µM, 2 hours
T2 construct: expressed in transfected cells; host or cells: HEK293 cells, stably transfected
T2 sequence (P80365 1-405): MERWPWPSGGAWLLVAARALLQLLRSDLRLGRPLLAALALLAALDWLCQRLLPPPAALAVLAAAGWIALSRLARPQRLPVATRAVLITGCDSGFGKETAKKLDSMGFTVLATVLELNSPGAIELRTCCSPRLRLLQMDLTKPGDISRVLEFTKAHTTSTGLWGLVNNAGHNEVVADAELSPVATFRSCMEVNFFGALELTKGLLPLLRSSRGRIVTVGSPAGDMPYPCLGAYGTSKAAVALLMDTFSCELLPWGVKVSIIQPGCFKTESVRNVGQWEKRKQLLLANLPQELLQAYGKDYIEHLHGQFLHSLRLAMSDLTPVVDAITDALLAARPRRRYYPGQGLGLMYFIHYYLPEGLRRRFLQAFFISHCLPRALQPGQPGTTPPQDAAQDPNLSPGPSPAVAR
Procedure: 11β-HSD2 activity was determined in cells that are incubated with substrate (cortisol) and product (cortisone) is determined by LC/MS. Cells are plated at 2 x 10^4 cells/well in a 96-well tissue culture microplate and incubated overnight at @37° C in 5% CO2 95% O2. Compounds to be tested are solubilized in 100% DMSO at 10 mM and serially diluted in water and 10% DMSO to final concentration in 10% DMSO. 10 µl of each test dilution is dispensed into the well of a 96-well microplate (assay concentrations of 10, 1, 0.1 µM). Low and high control wells contain 10 µl of 10% DMSO. A solution of DMEM is prepared containing 1% penicillin, 1% streptomycin and 300 nM […]. Medium is removed from cell assay plate and DMEM solution (100 µl) added to each well. Cells are incubated for 2 hours @37° C in 5% CO2 95% O2. Following incubation medium is removed from each well into 500 µl ethyl acetate mixed by vortex and incubated at room temperature for 5 minutes. A calibration curve of known concentrations of cortisone in assay medium is also set up and added to 500 µl ethyl acetate vortexed and incubated as above. The supernatant is removed to a 96 deep well plate and dried down under liquid nitrogen at 65°C. Each well is solubilised in 100 µl 70:30 H2O:AC and removed to a 96 well v bottomed plate for LC/MS analysis.

Row | inhibition at 10 µM [1] | IC50 [2] | IC50 [3] | SMILES
1 | 77% | < 50 nM | 100 to 1000 nM | Nc1c(Cl)cc(C(=O)N2CC3[C@@H](C2)[C@H]2C=C[C@@H]3[C@@H]3C[C@H]23)cc1Cl (stereo partly drawn) [Example 9, (4-amino-3,5-dichlorophenyl)((4R,4aR,5aS,6S,6aS)-3,3a,4,4a,5,5a,6,6a-octahydro-4,6-ethenocyclopropa[f]isoindol-2(1H)-yl)methanone]
2 | 41% | < 50 nM | 100 to 1000 nM | O=C(C1CC=CCC1)N1CC2[C@@H](C1)[C@H]1C=C[C@@H]2[C@@H]2C[C@H]12 (stereo partly drawn) [Example 10, cyclohex-3-en-1-yl((4R,4aR,5aS,6S,6aS)-3,3a,4,4a,5,5a,6,6a-octahydro-4,6-ethenocyclopropa[f]isoindol-2(1H)-yl)methanone]
3 | 100% | 50 to 500 nM | ≥ 1000 nM | N#Cc1ccc(N2CCN(c3ccc(C(=O)N4CC5[C@@H](C4)[C@H]4C=C[C@@H]5[C@@H]5C[C@H]45)cn3)CC2)cc1 (stereo partly drawn) [Example 15, 4-(4-(5-((4R,4aR,5aS,6S,6aS)-1,2,3,3a,4,4a,5,5a,6,6a-decahydro-4,6-ethenocyclopropa[f]isoindole-2-carbonyl)pyridin-2-yl)piperazin-1-yl)benzonitrile]

Continued, molecule first:

Row | SMILES | inhibition at 10 µM [1] | IC50 [2] | IC50 [3]
4 | O=C(C1CCCCC1)N1CC2[C@@H](C1)[C@H]1C=C[C@@H]2[C@@H]2C[C@H]12 (stereo partly drawn) [Example 1, cyclohexyl((4R,4aR,5aS,6S,6aS)-3,3a,4,4a,5,5a,6,6a-octahydro-4,6-etheno-cyclopropa[f]isoindol-2(1H)-yl)methanone] | 100% | < 50 nM | ≥ 1000 nM
5 | O=C(C1CCCCC1)N1CC2C3CCC(C4CC34)C2C1 [Example 2, cyclohexyl((4R,4aR,5aS,6S,6aS)-octahydro-4,6-ethanocyclopropa[f]iso-indol-2(1H)-yl)methanone] | 100% | < 50 nM | < 100 nM
6 | CC(C)(C)C(=O)N1CC2[C@@H](C1)[C@H]1C=C[C@@H]2[C@@H]2C[C@H]12 (stereo partly drawn) [Example 7, 2,2-dimethyl-1-((4R,4aR,5aS,6S,6aS)-3,3a,4,4a,5,5a,6,6a-octahydro-4,6-ethenocyclopropa[f]isoindol-2(1H)-yl)propan-1-one] | 85% | 500 to 1000 nM | ≥ 1000 nM
